The source of these data is ChEMBL document CHEMBL3272039, “Potenial antitumor agents. 28. Deoxyribonucleic acid polyintercalating agents” (J Med Chem, 1978).

Each structure is given as a SMILES string.

The subject of one data set is P388. In words: Antitumor activity against mouse P388 cells allografted in ip dosed BDF1 mouse at optimum dose administered qd for 5 days relative to control. The class given is functional.
A short description of data set [1]: (§1) Toxicity in ip dosed BDF1 mouse allografted with mouse P388 cells administered qd for 5 days. Format: organism-based. The following applies: BDF1, mouse, in vivo.
The next data set is filed under the species Bos taurus. In words: Displacement of ethidium bromide from calf thymus DNA by spectrofluorometric analysis.
The next data set deals with Pseudoalteromonas. In words: Induction of bacteriophage PM2 closed circular DNA unwinding assessed as drug per nucleic acid phosphate ratio at equivalence by viscometric analysis.
A short description of data set [2]: Lipophilic-hydrophilic balance, Rm of the compound by reversed-phase chromatographic analysis. The class given is physicochemical.
Data set [3] relates to Mus musculus. The data set is described as §1. The class given is organism-based. The following applies: mouse, in vivo, 120 h.
In a further data set the test system is L1210. As to the kind of experiment: Antitumor activity against mouse L1210 cells allografted in ip dosed BDF1 mouse at optimum dose administered qd for 5 days relative to control. Format: functional.
The nature of data set [4]: (§2) Toxicity in ip dosed BDF1 mouse allografted with mouse L1210 cells administered qd for 5 days. The settings on record: BDF1, mouse, in vivo. The class given is organism-based.
The subject of data set [5] is Mus musculus. Described as §2. Format: organism-based. The following applies: mouse, in vivo, 120 h.

On to `COc1cc(NS(=O)(=O)CCCCS(=O)(=O)Nc2ccc(Nc3ccnc4ccccc34)c(OC)c2)ccc1Nc1ccnc2ccccc12.Cl.O`, for which, in the data set with P388, the ILS – broadly, how much longer treated animals lived than controls – is reported as more than 25%. In data set [1], this compound yielded an MTD at 120 h of 12 mg/kg/day. Further, the C50 in the data set filed under Bos taurus is 7.5 µM. Moreover, the Ratio in the data set on Pseudoalteromonas worked out at 0.15. The same compound displayed a Rm in [2] of -0.28.
Turning to `Cl.O.O=S(=O)(CCCCNc1c2ccccc2nc2ccccc12)Nc1ccc(Nc2c3ccccc3nc3ccccc23)cc1`, the ILS in the data set on P388 is more than 25%. The same compound had an MTD at 120 h in [1] of 37 mg/kg/day. In the data set listed under Bos taurus, this compound showed a C50 of 0.09 µM. Besides, in the data set with Pseudoalteromonas, the Ratio worked out at 0.066. In [2], the Rm was -0.1.
With `Cl.O.O=S(=O)(CCNc1c2ccccc2nc2ccccc12)Nc1ccc(Nc2c3ccccc3nc3ccccc23)cc1`, the results for the ILS with P388 and in the data set on L1210 were 31% and more than 25%, respectively. This compound also gave an Activity with Mus musculus [3] of 60 mg/kg/day. This compound yielded a C50 in the data set listed under Bos taurus of 0.09 µM. Also, the Ratio in the data set with Pseudoalteromonas came to 0.078. The Rm in data set [2] is -0.17. The MTD at 120 h in [4] was 60 mg/kg/day.
On to `Br.O.O=S(=O)(CCCCCCNc1ccnc2ccccc12)Nc1ccc(Nc2c3ccccc3nc3ccccc23)cc1`, for which the ILS in the data set with P388 and with L1210 was more than 25% each time. Also, the MTD at 120 h in [1] and in data set [4] was 75 mg/kg/day throughout. In the data set listed under Bos taurus, this compound yielded a C50 of 0.65 µM. This compound returned a Rm in data set [2] of -0.09.
Turning to `COc1cc(NS(C)(=O)=O)ccc1Nc1c2ccccc2nc2ccccc12` [AMSACRINE], the Activity with Mus musculus [3] and in the data set with Mus musculus [5] was 6.7 mg/kg/day in each case. This compound gave a C50 in the data set listed under Bos taurus of 10.8 µM. Further, in the data set on Pseudoalteromonas, the Ratio came to 0.082. In addition, the ILS with L1210 was 114%. Moreover, the Rm in [2] was 0.18.
Consider `Cl.O.O=S(=O)(CCCS(=O)(=O)Nc1ccc(Nc2c3ccccc3nc3ccccc23)cc1)Nc1ccc(Nc2c3ccccc3nc3ccccc23)cc1`, for which the results for the increase in lifespan (ILS) in the data set on P388 and with L1210 were 29% and more than 25%, respectively. For the same compound, the Activity in the data set on Mus musculus [3] amounted to 250 mg/kg/day. Besides, in the data set filed under Bos taurus, the C50 is 0.064 µM. In [2], this compound displayed a Rm of -0.16. The same compound showed an MTD at 120 h in [4] of 250 mg/kg/day.
`COc1cc(NS(=O)(=O)CCCCS(=O)(=O)Nc2ccc(Nc3c4ccccc4nc4ccccc34)c(OC)c2)ccc1Nc1c2ccccc2nc2ccccc12`: the increase in lifespan (ILS) with P388 is 39%; with L1210, 26%. Also, the Activity in the data set on Mus musculus [3] and in the data set on Mus musculus [5] was more than 500 mg/kg/day in each case. Further, the C50 in the data set listed under Bos taurus amounted to 0.057 µM. For the same compound, the Ratio with Pseudoalteromonas was determined as 0.041. For the same compound, in data set [2], the Rm worked out at 0.27.
For `Cl.O.O=S(=O)(CCCCCNc1ccnc2ccccc12)Nc1ccc(Nc2c3ccccc3nc3ccccc23)cc1`, the ILS is on record as 37% with P388 and more than 25% in the data set on L1210. Also, the Activity in the data set on Mus musculus [3] came out at 200 mg/kg/day. The same compound had a C50 in the data set filed under Bos taurus of 0.4 µM. For the same compound, the Rm in data set [2] is -0.24. Also, the MTD at 120 h in [4] turned out to be 200 mg/kg/day.
On to `CS(=O)(=O)Nc1ccc(Nc2ccnc3ccccc23)cc1`, for which the ILS in the data set on P388 and in the data set on L1210 was more than 25% throughout. For the same compound, the MTD at 120 h in [1] and in data set [4] was 200 mg/kg/day throughout. Besides, in the data set filed under Bos taurus, the C50 was determined as 490 µM. For the same compound, the Rm in [2] is -0.39.
As for `Br.O=S(=O)(CCCCNc1ccnc2ccccc12)Nc1ccc(Nc2c3ccccc3nc3ccccc23)cc1`, the increase in lifespan (ILS) in the data set on P388 was found to be 76%; in the data set with L1210 it was 29%. Also, the Activity with Mus musculus [3] and in the data set on Mus musculus [5] was 75 mg/kg/day in each case. This compound had a C50 in the data set filed under Bos taurus of 0.18 µM. Moreover, the Ratio with Pseudoalteromonas stood at 0.091. Moreover, the Rm in [2] was -0.31.
Regarding `c1ccc(Nc2c3ccccc3nc3ccccc23)cc1`, the ILS with P388 and with L1210 was more than 25% each time. The MTD at 120 h in [1] and in data set [4] was 105 mg/kg/day in each case. In the data set listed under Bos taurus, this compound gave a C50 of 13 µM. The Rm in data set [2] stood at 0.43.
Consider `Cl.O.O=S(=O)(CCCNc1c2ccccc2nc2ccccc12)Nc1ccc(Nc2c3ccccc3nc3ccccc23)cc1`, for which the increase in life span (ILS) in the data set with P388 was 38%; in the data set with L1210, more than 25%. The compound further gave an Activity with Mus musculus [3] of 300 mg/kg/day. The compound further yielded a C50 in the data set listed under Bos taurus of 0.1 µM. Further, the Rm in data set [2] is recorded as -0.25. The same compound came in with an MTD at 120 h in [4] of 300 mg/kg/day.
The compound `Cl.c1ccc(OCCCOc2ccccc2Nc2c3ccccc3nc3ccccc23)c(Nc2c3ccccc3nc3ccccc23)c1` displayed an ILS in the data set on P388 of more than 25%. The compound also gave an MTD at 120 h in data set [1] of 50 mg/kg/day. In the data set filed under Bos taurus, this compound came in with a C50 of 0.6 µM. In addition, the Ratio with Pseudoalteromonas is 0.072. The compound also registered a Rm in data set [2] of 0.28.
In the case of `Br.O.O=S(=O)(CCNc1ccnc2ccccc12)Nc1ccc(Nc2c3ccccc3nc3ccccc23)cc1`, the results for the increase in lifespan (ILS) in the data set with P388 and with L1210 were 36% and more than 25%, respectively. In the data set with Mus musculus [3], this compound came in with an Activity of 90 mg/kg/day. The C50 in the data set filed under Bos taurus turned out to be 0.12 µM. Besides, the Ratio in the data set with Pseudoalteromonas came to 0.12. Moreover, the Rm in [2] is listed as -0.54. This compound displayed an MTD at 120 h in data set [4] of 90 mg/kg/day.
